For test [1], the system named is Karpas-299 cells. Briefly: Cellular toxicity test (2), CellTiter-Glo. The test is classed as cell-based, human. To be noted: for Cell remaining rate (%): 0.25 μM solution added 50 μL per well, 4 days, relative to addition of no compound; for cellular toxicity (in words): summary of Test Example 2. As to the method: Karpas-299 cells (European Collection of Authenticated Cell Cultures, hereinafter, ECACC), which are CD30 antigen-expressing cell lines and human lymphoma cell lines, were cultured in RPMI 1640 (GIBCO) containing 10% fetal bovine serum (MP Biomedicals) (hereinafter, referred to as “culture medium A” in this test). Karpas-299 cells were prepared to be 2×10^6 cells/mL in culture medium A, and were added to a 96 well microplate for cell culturing in an amount of 50 μL for each well. Each compounds prepared to be in a concentration of 0.25 μM with culture medium A was added to the microplate in an amount of 50 μL for each well, and culture was carried out at 37° C. under 5% CO2 for 4 days. After culturing, the microplate was taken out from the incubator, and was left at rest at room temperature for 10 minutes. To each well, 50 μL of CellTiter-Glo Luminescent Cell Viability Assay (Promega) was added, and the resultant mixture was stirred. This mixture was incubated at a dark place for 20 minutes, and luminescence was measured by using a microplate luminometer, thereby determining the percentage of the number of cells remaining after treatment with each compound to the number of cells remaining after treatment with addition of no compound.
(Cellular ATP, detected with luciferase, serves as a proxy for viable cell number.)

A further test has as its target T1, porcine tubulin (Sus scrofa, UniProt P02550+P02554).
T1 construct: purchased Cytoskeleton Inc. BK006P
Briefly: Activity for inhibiting microtubule polymerization using porcine tubulins. Type of test: biochemical. To be noted: for Microtubule polymerization rate (%): at 9.1 μM, 60 minutes after assay initiation, absorbance at 340 nm, 37° C.; for activity for inhibiting microtubule polymerization (in words): summary of Test Example 3. On the procedure:
Using a tubulin polymerization inhibition assay kit (catalog number: BK006P) purchased from Cytoskeleton Inc., the polymerization inhibitory activity of compounds of Examples was evaluated in accordance with the protocol appended to the kit. To a 96 well microplate, 80 mM PIPES pH 6.9, 2 mM MgCl, 0.5 mM EGTA and 5% DMSO buffered solution of the compound to be evaluated was added in an amount of 10 μL for each well, and to these wells, 3 mg/mL porcine tubulin 80 mM PIPES pH 6.9, 2 mM MgCl, 0.5 mM EGTA, 1 mM GTP and 10.2% glycerol solution was added in an amount of 100 μL for each well. In order to examine a state in which tubulins polymerize over time, the absorbance at 340 nm was measured at 37° C., using a microplate reader. As the polymerization of tubulins progresses, the absorbance at 340 nm rises.
The tubulin polymerization inhibitory activity was evaluated based on the proportion of polymerized tubulins 60 minutes after the assay initiation. Specifically, the microtubule polymerization rate (%) was calculated by dividing the absorbance of tubulins that had polymerized at wells to which the compound had been added by the absorbance of tubulins that had polymerized at wells to which the compound had not been added, and multiplying the obtained value by 100.

Test [2] deals with Karpas-299 cells. Briefly: Cellular toxicity test (1), CellTiter-Glo. The test is classed as cell-based, human. To be noted: 16 μg/mL solution added 50 μL per well, 4 days, relative to addition of no compound. As to the method:
Karpas-299 cells were prepared to be 2×10^6 cells/mL in culture medium A, and were added to a 96 well microplate for cell culturing in an amount of 50 μL for each well. […] After culturing, the microplate was taken out from the incubator, and was left at rest at room temperature for 10 minutes. To each well, 50 μL of CellTiter-Glo Luminescent Cell Viability Assay (Promega) was added, and the resultant mixture was stirred.

The values that follow come from US12178879B2, “Hemiasterlin derivative and antibody-drug conjugate thereof” (priority 2019, dated 2024).

T1 sequence (P02550 whole entry): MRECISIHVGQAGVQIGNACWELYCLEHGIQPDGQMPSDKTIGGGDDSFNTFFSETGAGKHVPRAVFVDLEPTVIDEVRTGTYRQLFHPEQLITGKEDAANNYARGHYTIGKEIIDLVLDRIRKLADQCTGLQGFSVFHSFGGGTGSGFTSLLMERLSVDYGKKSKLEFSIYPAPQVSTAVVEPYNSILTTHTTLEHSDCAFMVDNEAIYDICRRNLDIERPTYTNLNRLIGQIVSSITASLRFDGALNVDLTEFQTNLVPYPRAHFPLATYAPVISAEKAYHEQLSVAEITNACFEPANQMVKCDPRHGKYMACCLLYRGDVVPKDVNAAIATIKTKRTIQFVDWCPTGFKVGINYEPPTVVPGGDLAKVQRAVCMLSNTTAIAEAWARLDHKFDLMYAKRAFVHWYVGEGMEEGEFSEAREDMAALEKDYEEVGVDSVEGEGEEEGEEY
T1 sequence (P02554 whole entry): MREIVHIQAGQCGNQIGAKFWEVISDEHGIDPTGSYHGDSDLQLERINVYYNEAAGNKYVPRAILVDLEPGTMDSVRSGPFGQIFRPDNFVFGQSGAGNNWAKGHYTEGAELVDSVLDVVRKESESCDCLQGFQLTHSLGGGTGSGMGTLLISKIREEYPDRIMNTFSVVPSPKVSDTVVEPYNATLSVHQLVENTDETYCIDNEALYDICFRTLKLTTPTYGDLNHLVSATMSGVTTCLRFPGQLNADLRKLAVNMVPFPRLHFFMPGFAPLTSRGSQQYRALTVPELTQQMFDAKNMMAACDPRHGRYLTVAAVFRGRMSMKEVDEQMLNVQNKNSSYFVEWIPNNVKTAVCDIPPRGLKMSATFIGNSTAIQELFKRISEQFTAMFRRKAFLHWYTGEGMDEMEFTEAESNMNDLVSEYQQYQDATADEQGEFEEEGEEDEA

Consider `CN[C@H](C(=O)N[C@H](C(=O)N(C)[C@H](/C=C(\C)C(=O)NCCCCNC(=O)CCCCCN1C(=O)CC(SC[C@H](N)C(=O)O)C1=O)C(C)C)C(C)(C)C)C(C)(C)c1cn(C)c2ccccc12` (stereo partly drawn) [Comparative Example compound, reference compound], for which, in the test with Karpas-299 cells [1], the “Cell remaining rate (%)” value is given as 18.1% and the “cellular toxicity (in words)” value is listed as “strong cellular toxicity”. For the same molecule, at porcine tubulin, the “Microtubule polymerization rate (%)” value is listed as 0% and the “activity for inhibiting microtubule polymerization (in words)” value is recorded as “comparable activities for inhibiting microtubule polymerization”.
The like results for `CN[C@H](C(=O)N[C@H](C(=O)N(C)[C@H](/C=C(\C)C(=O)N[C@H](CCC(=O)NCCCC[C@H](N)C(=O)O)C(=O)O)C(C)C)C(C)(C)C)C(C)(C)c1ccccc1` [Metabolite of Example ADC1] were, in that order, 100%, “weak cytotoxic activity”, 1.7% and “comparable activities for inhibiting microtubule polymerization”.
As to Brentuximab, the “Cell remaining rate (%)” value in the test on Karpas-299 cells [2] stood at 71.5%.
